Results as given in patent US4140707A, “Malonato platinum anti-tumor compounds” (priority 1977, dated 1979).

How the values were obtained:
[1] = Hydrolysis by U.V./vis spectral and conductivity studies; assay type: physicochemical
Excerpt: *U.V./via spectral and conductivity studies have shown that hydrolysis is negligible.

[2] = system: Sarcoma 180; experiment: Antitumor activity, solid Sarcoma 180 (Table I), T/C tumor weight ratio, sacrifice day 10; assay type: in vivo, female Swiss white mice
Experimental: The compounds of the invention were tested for anti-tumor activity using our standard screening tumor, solid sarcoma 180 tumer in female Swiss white mice, following standard protocols for this testing as set by the National Cancer Institute. (Cancer Chemotherapy Rep., 25(1962)).
For these tests an S 180 tumor taken from a sacrificed mouse was disected free of superfluous tissue and cut under sterile conditions into approximately 10 milligram size pieces. These tissue pieces were then implanted by trocar in the left axillary region, subcutaneously, in new mice. The mice were, on the average, approximately four weeks old and weighed 18-20 grams. Taking day 0 as the day of implant, the animals were sacrificed on day 10. The tumors were excised and weighed and the ratio of the weights of the tumors in mice in the treated animals to the control set of animals was obtained. This ratio, multiplied by 100, is given as the T/C ratio in Table I.
For the first set of tests the coordination compound was freshly dissolved in sterile distilled water and injected intraperitoneally on day 1 into each of the test mice. The volume of the injection was usually 1/2 ml. In some cases, in order to get an active dose into the animal where the chemical was not soluble in this amount of solvent, a fine dispersion was prepared of the dose needed for the test. Thus, some of our test results were obtained on animals where a slurry of the compound was injected. These are so noted in Table I below. In addition, for some of the compounds, there was injected about 1 ml of solution, either in one single injection, or in 2 injections given a few hours apart of 1/2 ml each. These injections were initially given in 4 different dose levels for each new compound with 6 mice in each dose level. The tests covered a dose range from a low ineffective dose, to an upper dose level which produced some deaths within the time period of the experiment.

[3] = system: Sarcoma 180; experiment: Large Sarcoma 180 regressions (Table II), injection day 8, observed approximately 60 days; assay type: in vivo, female Swiss white mice; conditions: single i.p. day 8, H2O solution
Experimental: In addition to the day 1 injections described above, in a number of cases injections were delayed until day 8 of tumor growth. In these cases the tumor was usually at least larger than 1/2 gm, as estimated by palpation. The animals were then injected and observed for a period of approximately 60 days. Activity was measured by the number of animals whose tumors had regressed to the vanishing point, while still allowing the animal to survive for this time period. Such test results are described in TABLE II below.

[4] = system: Walker 256 Carcinosarcoma; experiment: Confirmatory antitumor activity, Walker 256 Carcinosarcoma (Table III); assay type: in vivo, Rat; conditions: single injection day 1 in oil, i.p.
Experimental: Confirmatory tests of antitumor activity against the Walker 256 Circinosarcoma in rats, and the ADJ/PC6A tumor in mice were conducted. The initial test results are shown in Table III and confirm the potent action of the compounds of the invention against these other tumor systems.

[5] = 4 mg/kg, i.p. daily for days 1-10, solution in H2O
[6] = 5 mg/kg, i.p. daily for days 1-10, solution in H2O
[7] = 6 mg/kg, i.p. daily for days 1-10, solution in H2O
[8] = 7 mg/kg, i.p. daily for days 1-10, solution in H2O
[9] = 10 mg/kg, single i.p. day 1, slurry in H2O
[10] = 15 mg/kg, single i.p. day 1, slurry in H2O
[11] = 20 mg/kg, single i.p. day 1, slurry in H2O
[12] = 25 mg/kg, single i.p. day 1, slurry in H2O
[13] = 30 mg/kg, single i.p. day 1, slurry in H2O
[14] = 50 mg/kg, single i.p. day 1, slurry in H2O

For `O=C(O)CC(=O)O.[NH2-].[NH2-].[Pt+2]` [Malonatodiammineplatinum(II)], the hydrolysis [1] was “negligible”, the “No. of Deaths” value [2, 5] was 0 and the T/C [2, 5] was 54. For the same compound, the “No. of Deaths” value [2, 6] was 0, the T/C [2, 6] was 56 and the “No. of Deaths” value [2, 7] was 0. For the same compound, the T/C [2, 7] was 23, the “No. of Deaths” value [2, 8] was 0 and the T/C [2, 8] was 12. For the same compound, the “No. of Deaths” value [2, 9] was 0, the T/C [2, 9] was 76 and the “No. of Deaths” value [2, 10] was 0. For the same compound, the T/C [2, 10] was 38, the “No. of Deaths” value [2, 11] was 0 and the T/C [2, 11] was 64. The “No. of Deaths” value [2, 12] was 0, the T/C [2, 12] was 31 and the “No. of Deaths” value [2, 13] was 1/6. For the same compound, the T/C [2, 13] was 7, the “No. of Deaths” value ([2]; 40 mg/kg, single i.p. day 1, slurry in H2O) was 6/6 and the “No. of Deaths” value [2, 14] was 5/6. For the same compound, the T/C [2, 14] was 1, the “No. of Deaths” value ([2]; 60 mg/kg, single i.p. day 1, slurry in H2O) was 6/6 and the Deaths ([3]; 14 mg/kg) was 4. For the same compound, the “Total Number of Regressions” value ([3]; 14 mg/kg) was 2, the Deaths ([3]; 16 mg/kg) was 3 and the “Total Number of Regressions” value ([3]; 16 mg/kg) was 3. The Deaths ([3]; 18 mg/kg) was 2, the “Total Number of Regressions” value ([3]; 18 mg/kg) was 4 and the Deaths ([3]; 20 mg/kg) was 1. The “Total Number of Regressions” value ([3]; 20 mg/kg) was 5, the “% Inhibition” value ([4]; 10 mg/kg) was 100% and the Deaths ([4]; 10 mg/kg) was 0. The “% Inhibition” value ([4]; 20 mg/kg) was 100%, the Deaths ([4]; 20 mg/kg) was 0 and the “% Inhibition” value ([4]; 40 mg/kg) was 100%. It also gave a Deaths ([4]; 40 mg/kg) of 0 and a Deaths ([4]; 80 mg/kg) of 0.
